Assay results as given in the supplement of paper PMC11451515.

System: P12-Ichikawa
Assay: cell viability relative to DMSO control; higher = less cytotoxic
Conditions: HPLM + 10% dialyzed FBS, 48 h
Summary of the method: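 Library compounds in DMSO were pin-dosed into 1536-well plates (5 μl) holding NOMO1 or SEM (500 cells/well) or P12-Ichikawa (1000 cells/well) leukemia cells, across an 11-point threefold series of 47 μM to 0.79 nM. Each cell line had been adapted for at least four passages in each medium. CellTiter-Glo One luminescence was read after 48 h at 37°C. Viability is the per-plate percentage relative to DMSO wells, with cell-free wells as background.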

SMILES	cell viability (0.000781 µM) [%]	cell viability (0.00234 µM) [%]	cell viability (0.00702 µM) [%]	cell viability (0.0211 µM) [%]	cell viability (0.0632 µM) [%]	cell viability (0.19 µM) [%]	cell viability (0.569 µM) [%]	cell viability (1.71 µM) [%]	cell viability (5.12 µM) [%]	cell viability (15.4 µM) [%]	cell viability (46.1 µM) [%]
COc1ccc(-n2nc(C(N)=O)c3c2C(=O)N(c2ccc(N4CCCCC4=O)cc2)CC3)cc1	118	121	125	132	132	127	141	124	16	15.2	14.8
N#Cc1c(NC(=O)c2cccc3ccccc23)sc2c1CCCC2	121	122	126	123	136	132	82.4	21.6	18.2	28.2	27.4
